Data reported in patent US10806785B2, “Immunomodulator compounds and methods of use” (Incyte Corporation, priority 2016, dated 2020).
Residues, ends and D or L forms follow the SMILES beside them.

Experiments:
[1] = target: T1, PD-1/PD-L1 (Homo sapiens (Human), UniProt Q9NZQ7); experiment: PD-1/PD-L1 binding assay (Alphascreen)
Experimental: Binding assays were conducted in a low volume white 384-well polystyrene plate in a final volume of 20 μL. Compounds to be analyzed were first serially diluted in DMSO and added to the plate wells before the addition of other reaction components. The final concentration of DMSO in the assay was 1%. The assay was carried out at 25° C. in the PBS buffer (pH 7.4) with 0.05% Tween-20 and 0.1% BSA. Recombinant human PD-L1 protein (19-238) with a His-tag at the C-terminus was purchased from AcroBiosystems (PD1-H5229). Recombinant human PD-1 protein (25-167) with Fc tag at the C-terminus was also from AcroBiosystems (PD1-H5257). PD-L1 and PD-1 proteins were diluted in the assay buffer (final concentration −0.67 and 0.20 nM respectively) and 10 μL was added to the plate well. Plates were centrifuged and proteins were preincubated with compounds for 40 minutes. The incubation was followed by the addition of 10 μL of assay buffer supplemented with Alphascreen Ni chelate donor beads (PerkinElmer-AS101D) and Protein A Acceptor beads (PerkinElmer-6760137) at final concentration 2.5 μg/mL under reduced light. After plate sealing, the plate was incubated in the dark at room temperature for 120 minutes before reading on a PHERAstar FS plate reader (BMG Labtech). […]

[2] = target: T1, PD-1/PD-L1; experiment: PD-1/PD-L1 binding assay (HTRF)
Procedure, shortened: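 HTRF read-out (665/620 nm) after 60 min at 25 °C with 1 nM Eu anti-human IgG and 20 nM APC anti-His. Beforehand, inhibitors were preincubated 40 min with Fc-PD-1 (25-167, […] as listed) and His-PD-L1 (19-238, 10 nM) in PBS pH 7.4 with Tween-20, BSA, 1% DMSO; IC50 from log-concentration curve.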

T1 sequence (Q9NZQ7 19-238): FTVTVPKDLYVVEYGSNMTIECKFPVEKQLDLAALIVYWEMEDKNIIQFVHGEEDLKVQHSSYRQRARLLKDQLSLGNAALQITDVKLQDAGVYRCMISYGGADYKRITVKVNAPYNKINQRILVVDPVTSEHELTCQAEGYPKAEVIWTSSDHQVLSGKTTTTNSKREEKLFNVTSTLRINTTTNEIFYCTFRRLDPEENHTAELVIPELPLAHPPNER

SMILES	IC50 [1]	IC50 [2]
CCCC[C@H]1C(=O)N(C)CC(=O)N[C@@H](CC(=O)O)C(=O)N[C@@H](C(C)C)C(=O)N(C)[C@@H](Cc2ccccc2)C(=O)N[C@@H](Cc2ccc(O)cc2)C(=O)N(C)CC(=O)N[C@@H](Cc2c[nH]c3ccccc23)C(=O)N[C@@H](Cc2ccc(O)cc2)C(=O)N[C@@H](CC(C)C)C(=O)N[C@H](C(=O)NCC(N)=O)CSCC(=O)N[C@@H](Cc2ccccc2)C(=O)N(C)[C@@H](Cc2ccccc2)C(=O)N1C [Cpd 27] (HELM PEPTIDE1{[O=C(C[*:3])[*:2]].F.[meF].[CCCC[C@@H](C(=O)[*:2])N(C)[*:1]].[Sar].D.V.[meF].Y.[Sar].W.Y.L.C.G.[am]}$PEPTIDE1,PEPTIDE1,1:R3-14:R3$$$V2.0)	> 1 nM	
Cc1c(NC(=O)c2nc3c(n2C)CCNC3)cccc1-c1cccc(NC(=O)c2nc3c(n2C)CCN(CC[C@H]2CC[C@H](C(=O)O)CC2)C3)c1Cl [Example 126, trans-4-(2-(2-((2-chloro-2′-methyl-3′-(1-methyl-4,5,6,7-tetrahydro-1H-imidazo[4,5-c]pyridine-2-carboxamido)-[1,1′-biphenyl]-3-yl)carbamoyl)-1-methyl-1,4,6,7-tetrahydro-5H-imidazo[4,5-c]pyridin-5-yl)ethyl)cyclohexane-1-carboxylic acid]		≤ 10 nM
CCN1CCc2c(nc(C(=O)Nc3cccc(-c4cccc(NC(=O)c5nc6c(n5C)CCN(CC[C@H]5CC[C@H](C(=O)O)CC5)C6)c4Cl)c3C)n2C)C1 [Example 127, trans-4-(2-(2-((2-chloro-3′-(5-ethyl-1-methyl-4,5,6,7-tetrahydro-1H-imidazo[4,5-c]pyridine-2-carboxamido)-2′-methyl-[1,1′-biphenyl]-3-yl)carbamoyl)-1-methyl-1,4,6,7-tetrahydro-5H-imidazo[4,5-c]pyridin-5-yl)ethyl)cyclohexane-1-carboxylic acid]		≤ 10 nM
Cc1c(NC(=O)c2nc3c(n2C)CCN(CC2CC2)C3)cccc1-c1cccc(NC(=O)c2nc3c(n2C)CCN(CC[C@H]2CC[C@H](C(=O)O)CC2)C3)c1Cl [Example 128, trans-4-(2-(2-((2-chloro-3′-(5-(cyclopropylmethyl)-1-methyl-4,5,6,7-tetrahydro-1H-imidazo[4,5-c]pyridine-2-carboxamido)-2′-methyl-[1,1′-biphenyl]-3-yl)carbamoyl)-1-methyl-1,4,6,7-tetrahydro-5H-imidazo[4,5-c]pyridin-5-yl)ethyl)cyclohexane-1-carboxylic acid]		≤ 10 nM
Cc1c(NC(=O)c2nc3c(n2C)CCN(C(C)C)C3)cccc1-c1cccc(NC(=O)c2nc3c(n2C)CCN(CC[C@H]2CC[C@H](C(=O)O)CC2)C3)c1Cl [Example 129, trans-4-(2-(2-((2-chloro-3′-(5-isopropyl-1-methyl-4,5,6,7-tetrahydro-1H-imidazo[4,5-c]pyridine-2-carboxamido)-2′-methyl-[1,1′-biphenyl]-3-yl)carbamoyl)-1-methyl-1,4,6,7-tetrahydro-5H-imidazo[4,5-c]pyridin-5-yl)ethyl)cyclohexane-1-carboxylic acid]		≤ 10 nM
Cc1c(NC(=O)c2nc3c(n2C)CCN(C2CCCC2)C3)cccc1-c1cccc(NC(=O)c2nc3c(n2C)CCN(CC[C@H]2CC[C@H](C(=O)O)CC2)C3)c1Cl [Example 130, trans-4-(2-(2-((2-chloro-3′-(5-cyclopentyl-1-methyl-4,5,6,7-tetrahydro-1H-imidazo[4,5-c]pyridine-2-carboxamido)-2′-methyl-[1,1′-biphenyl]-3-yl)carbamoyl)-1-methyl-1,4,6,7-tetrahydro-5H-imidazo[4,5-c]pyridin-5-yl)ethyl)cyclohexane-1-carboxylic acid]		≤ 10 nM
Cc1c(NC(=O)c2nc3c(n2C)CCN(C2CCCCC2)C3)cccc1-c1cccc(NC(=O)c2nc3c(n2C)CCN(CC[C@H]2CC[C@H](C(=O)O)CC2)C3)c1Cl [Example 131, trans-4-(2-(2-((2-chloro-3′-(5-cyclohexyl-1-methyl-4,5,6,7-tetrahydro-1H-imidazo[4,5-c]pyridine-2-carboxamido)-2′-methyl-[1,1′-biphenyl]-3-yl)carbamoyl)-1-methyl-1,4,6,7-tetrahydro-5H-imidazo[4,5-c]pyridin-5-yl)ethyl)cyclohexane-1-carboxylic acid]		≤ 10 nM
Cc1c(NC(=O)c2nc3c(n2C)CCN(CCO)C3)cccc1-c1cccc(NC(=O)c2nc3c(n2C)CCN(CC[C@H]2CC[C@H](C(=O)O)CC2)C3)c1Cl [Example 132, trans-4-(2-(2-((2-chloro-3′-(5-(2-hydroxyethyl)-1-methyl-4,5,6,7-tetrahydro-1H-imidazo[4,5-c]pyridine-2-carboxamido)-2′-methyl-[1,1′-biphenyl]-3-yl)carbamoyl)-1-methyl-1,4,6,7-tetrahydro-5H-imidazo[4,5-c]pyridin-5-yl)ethyl)cyclohexane-1-carboxylic acid]		≤ 10 nM
Cc1c(NC(=O)c2nc3c(n2C)CCN(C2CCOCC2)C3)cccc1-c1cccc(NC(=O)c2nc3c(n2C)CCN(C[C@H]2CC[C@@H](C(=O)O)CC2)C3)c1Cl [Example 136, cis-4-((2-((2-chloro-2′-methyl-3′-(1-methyl-5-(tetrahydro-2H-pyran-4-yl)-4,5,6,7-tetrahydro-1H-imidazo[4,5-c]pyridine-2-carboxamido)-[1,1′-biphenyl]-3-yl)carbamoyl)-1-methyl-1,4,6,7-tetrahydro-5H-imidazo[4,5-c]pyridin-5-yl)methyl)cyclohexane-1-carboxylic Acid]		≤ 10 nM
C[C@H](O)CN1CCc2c(nc(C(=O)Nc3cccc(-c4cccc(NC(=O)c5nc6c(n5C)CCN(CC57CCC(C(=O)O)(CC5)C7)C6)c4Cl)c3Cl)n2C)C1 [Example 181, (S)-4-((2-(2,2′-dichloro-3′-(5-(2-hydroxypropyl)-1-methyl-4,5,6,7-tetrahydro-1H-imidazo[4,5-c]pyridine-2-carboxamido)biphenyl-3-ylcarbamoyl)-1-methyl-6,7-dihydro-1H-imidazo[4,5-c]pyridin-5(4H)-yl)methyl)bicyclo[2.2.1]heptane-1-carboxylic acid]		≤ 10 nM
C[C@@H](O)CN1CCc2c(nc(C(=O)Nc3cccc(-c4cccc(NC(=O)c5nc6c(n5C)CCN(CC57CCC(C(=O)O)(CC5)C7)C6)c4Cl)c3Cl)n2C)C1 [Example 182, (R)-4-((2-(2,2′-dichloro-3′-(5-(2-hydroxypropyl)-1-methyl-4,5,6,7-tetrahydro-1H-imidazo[4,5-c]pyridine-2-carboxamido)biphenyl-3-ylcarbamoyl)-1-methyl-6,7-dihydro-1H-imidazo[4,5-c]pyridin-5(4H)-yl)methyl)bicyclo[2.2.1]heptane-1-carboxylic acid]		≤ 10 nM
